Legend:
Pen. steckii = test: preservative activity against test fungus in calcitonin nasal composition; conditions: chlorbutanol at 0.6% in calcitonin nasal pharmaceutical compositions
Excerpt: Very many well-known preserving agents present themselves for possible use in calcitonin pharmaceutical compositions. However experiment has shown that not all are suitable for practical use in relation to a calcitonin nasal spray.

[1] = test system: ciliary beating frequency of rat trachea; test: ciliary beating frequency, microphoto-oscillographic method of L. Chevance et al; conditions: at 0.6%, within 20 minutes
Description: 70, […] (1970). These are just some of the disadvantageous effects that can be encountered.
Moreover the compositions are well tolerated as indicated in standard tests, e.g. in that less than 50% inhibition of ciliary beating frequency is observed up to 20 minutes after administration, according to the microphoto-oscillographic method of L. Chevance et al, Acta Otolaryng. 70, 26-28 (1970).

[2] = relative bio-availability study nasal administration/intra-muscular injection of salmon calcitonin in healthy volunteers; assay type: in vivo; conditions: for time serum levels remain above the detectability limit: detectability limit 26 pg/ml
Description: The study is conducted with 12 healthy volunteers, 6 male and 6 female, with a body weight of from 50 to 85 kg. Each subject receives 4 administrations of salmon calcitonin, one intra-muscularly and 3 nasally. Administration is effected at the following dosages:
B. Intra-muscular: 50 MRC units.
Nasal administration is effected using composition in accordance with example 1 and a spray-applicator delivering 55 MRC units per individual spray dosage. For the purposes of administration the subject is laid on the back with the head tilted backwards for 5 minutes. The nostrils are cleaned by blowing of the nose immediately prior to administration.
Intra-muscular administration is effected by injection of a single 1 ml dose of a composition similar to that of example 1, but omitting benzalkonium chloride and containing 50 MRC units into the glutaeus medius muscle.
Each subject receives the 4 administrations in randomized sequence, and at least 3 days are allowed between consecutive administrations. Each administration is effected in the morning after a light breakfast from which milk, butter and cheese is excluded. 100 ml water or orange juice is taken hourly following treatment to maintain urinary output. Further food is allowed not earlier than 4 hours after treatment.
Blood samples are taken immediately prior to administration (control), and at intervals of 5, 15, 30, 60, 90, 120, 180, 240, 360 and 480 minutes following administration. For the control a 20 ml sample is taken. All subsequent samples are 2 ml samples.
The concentration of salmon calcitonin in each serum sample is measured by radio-immuno-assay. Blood-pressure is controlled during the course of the trial and urine-samples tested for possible adverse reaction. Occurrence of side-effects, e.g. symptoms of nausea, is noted.
The AUC ("area under curve") for salmon calcitonin plasma concentration is calculated statistically, once employing all value, including those below the 26 pg/ml detectability limit, once with values below the detectability limit read as zero. Maximal plasma concentration and time at which this is reached are also determined. Relative bio-availability for nasal administration is determined from the relative dosage-standardized AUC (i.e. based on 50 MRC units) following nasal and intra-muscular administration.

Row | AUC values compared with 50 MRC units i.m. ([2]; 110 MRC units intra-nasally) | AUC values compared with 50 MRC units i.m. ([2]; 220 MRC units intra-nasally) | F rel ([2]; both sexes, plasma, inhaled or intranasal, nasal vs intra-muscular, human, read-out: bio-availability (blood-plasma concentration) following nasal administration relative to levels achieved on intra-muscular injection) [%] | time serum levels remain above the detectability limit ([2]; i.m. application of 50 MRC units) [h] | time serum levels remain above the detectability limit ([2]; nasal application of 110 MRC units) [h] | Structure (SMILES) | time required to reduce the cell count to less than 0.1% (Pen. steckii) | inhibition of the ciliary beating frequency [1] | adverse side-effects following nasal administrations ([2]; nasal, up to the highest dosage of 220 MRC units)
1 | – | – | – | – | – | CC(C)(O)C(Cl)(Cl)Cl [chlorbutanol] | more than 3 days | more than 50% | –
2 | comparable | comparable | ~50 | 6 | 8 | CC(C)C[C@H](NC(=O)[C@H](CCCCN)NC(=O)CNC(=O)[C@H](CC(C)C)NC(=O)[C@@H](NC(=O)[C@@H]1CSSC[C@H](N)C(=O)N[C@@H](CO)C(=O)N[C@@H](CC(N)=O)C(=O)N[C@@H](CC(C)C)C(=O)N[C@@H](CO)C(=O)N[C@@H]([C@@H](C)O)C(=O)N1)C(C)C)C(=O)N[C@@H](CO)C(=O)N[C@@H](CCC(N)=O)C(=O)N[C@@H](CCC(=O)O)C(=O)N[C@@H](CC(C)C)C(=O)N[C@@H](Cc1c[nH]cn1)C(=O)N[C@@H](CCCCN)C(=O)N[C@@H](CC(C)C)C(=O)N[C@@H](CCC(N)=O)C(=O)N[C@H](C(=O)N[C@@H](Cc1ccc(O)cc1)C(=O)N1CCC[C@H]1C(=O)N[C@@H](CCCNC(=N)N)C(=O)N[C@H](C(=O)N[C@@H](CC(N)=O)C(=O)N[C@H](C(=O)NCC(=O)N[C@@H](CO)C(=O)NCC(=O)N[C@H](C(=O)N1CCC[C@H]1C(N)=O)[C@@H](C)O)[C@@H](C)O)[C@@H](C)O)[C@@H](C)O [salmon calcitonin] | – | – | No adverse side-effects

Reference: patent US5733569A, “Galenic compositions comprising calcitonin and their use” (Novartis Corporation, priority 1982, dated 1998)
